Test results from patent US20140351963A1, “MiRNAs Useful to Reduce Lung Cancer Tumorigenesis and Chemotherapy Resistance and Related Compositions and Methods” (Ohio State Innovation Foundation, priority 2011, published 2014).

How the values were obtained:
A549 cells [1] = assay: A549 xenograft in nude mice with gefitinib treatment; type: in vivo; conditions: for Tumor growth: nude mice injected s.c. with stably infected A549 cells, 35 days; for Sensitivity to gefitinib-induced apoptosis in vivo: nude mice, stably infected A549 cells, gefitinib 200 mg/kg oral gavage, 2 weeks
Method: A549 cells were stably infected with a control miRNA, miR-103 and miR-203 or with control inhibitor of miRNA or a lentiviral inhibitor of miR-221 and miR-30c (SBI). We injected 5×10^6 viable cells subcutaneously into the right flanks of 6-week-old male nude mice (Charles River Breeding Laboratories). Treatment was started 7 d after tumor cell inoculation. […] Tumor size was assessed twice per week using a digital caliper. Tumor volumes were determined by measuring the length (1) and the width (w) of the tumor and calculating the volume (V=lw^2/2). We killed the mice 35 days after injection. Statistical significance between the control and treated mice was evaluated using a Student's t test. Mouse experiments were conducted after approval by the institutional animal care and use committee at Ohio State University.
A549 cells were stably infected with the Human pre-microRNA Expression Construct Lenti-miR expression plasmid containing the full-length miR-103, miR-203 or the anti-miR-221, miR-30c and the GFP gene under the control of two different promoters (System Biosciences). An empty vector was used as control. Pre-miRs expression and control constructs were packaged with pPACKH1 Lentivector Packaging Plasmid mix (System Biosciences) in a 293TN packaging cell line. Viruses were concentrated using PEGit Virus Precipitation Solution, and titers were analyzed using the UltraRapid Lentiviral Titer Kit (System Biosciences). Infected cells were selected by FACS analysis (FACScalibur; BD Bioscience). Infection efficiency >90% was verified by fluorescent microscopy and confirmed by real-time PCR for miRs expression.

A549 cells [2] = assay: Cell-cycle analysis by flow cytometry; type: cell-based
Method: (§1) For cell-cycle analysis, cells were plated in 6 cm dishes, transfected as indicated in the figures, trypsinized, washed in PBS, and fixed with ice-cold 70% ethanol while vortexing. Cells were rehydrated in PBS and stained 30 min at RT with propidium iodide ([…] PI, 0.5 mg/ml RNase in PBS) prior to flow-cytometric analysis. Every experiment was repeated 5 times independently, with two replicas for each sample.

AKT/ERKs pathways = assay: Western blot of AKT/ERKs pathways after miRNA enforced expression; type: cell-based; conditions: A549; miRNA overexpression
Method: (§2) Total proteins from NSCLC were extracted with radioimmunoprecipitation assay (PIRA) buffer ([…], pH 7.5, 1% Triton, 0.1% SDS, 0.1% sodium deoxycholate and 1% Nonidet P40). Sample extract (50 μg) was resolved on 7.5-12% SDS-polyacriylamide gels (PAGS) using a mini-gel apparatus (Bio-Rad Laboratories) and transferred to Hybond-C extra nitrocellulose. Membranes were blocked for 1 h with 5% nonfat dry milk in Tris-buffered saline containing 0.05% Tween 20, incubated overnight with primary antibody, washed and incubated with secondary antibody, and visualized by chemiluminescence.
(§3) The following primary antibodies were used: Apaf-1, Snail, Slug (abcam), Src, Met, Dicer, Vimintin, E-cadherin, Zeb1, Zeb-2 (Santa Cruz), Bim, pErks, total Erks, pAkt, total Akt, GAPDH, Parp (cell signaling, Pkc-ε, (BD transduction lab), β-actin antibody, Fibronectin (Sigma). A secondary anti-rabbit or anti-mouse immunoglobulin G (IgG) antibody peroxidase conjugate (Chemicon) was used.

Calu-1 cells [3] = assay: Cell-cycle analysis by flow cytometry; type: cell-based, human
Method: as §1

NSCLCs = assay: Transwell migration assay; type: cell-based; conditions: 24 h
Method: Transwell insert chambers with an 8-μm porous membrane (Greiner Bio One) were used for the assay. Cells were washed three times with PBS and added to the top chamber in serum-free medium. The bottom chamber was filled with medium containing 10% FBS. Cells were incubated for 24 h at 37° C. in a 5% CO2 humidified incubator. To quantify migrating cells, cells in the top chamber were removed by using a cotton-tipped swab, and the migrated cells were fixed in PBS, 25% glutaraldehyde and stained with crystal violet stain, visualized under a phase-contrast microscope and photographed. Crystalviolet-stained cells were then solubilized in acetic acid and methanol (1:1), and absorbance was measured at 595 nm.

PKC-ε and SRC = assay: Western blot of PKC-ε and SRC protein; type: cell-based, human
Method: as §2, §3

Calu-1 cells [4] = assay: Cell viability (MTS) and caspase 3/7 assays with gefitinib; type: cell-based, human; conditions: for Gefitinib sensitivity of transfected cells (caspase-3/7 and viability assays): Calu-1
Method: (§4) For detection of caspase 3/7 activity, cells were cultured in 96-well plates, in triplicate, treated with 5 μM, 10 μM or 15 μM gefitinig and analyzed using a Caspase-Glo 3/7 Assay kit (Promega) according to the manufacturer's instructions. Continuous variables are expressed as means±s.d. Cell viability was examined with 3-(4,5dimethylthiazol-2-yl)-2,5-dipheniltetrazolium bromide (MTS)-Cell Titer 96 AQueous One Solution Cell Proliferation Assay (Promega) according to the manufacturer's protocol. Metabolically active cells were detected by adding 20 μl of MTS to each well. After 1 h of incubation, the plates were analyzed in a Multilabel Counter (Bio-Rad Laboratories).

[5] = system: mesenchymal markers and E-cadherin; assay: Expression of epithelial and mesenchymal markers (immunofluorescence, immunoblot, qRT-PCR); type: cell-based, human; conditions: Calu-1
Method: Cells were grown on Lab-Tek II CC2 chamber slides (Nunc), fixed with 4% paraformaldehyde and permeabilized with 0.2% Triton X-100/PBS before blocking with 10% sheep serum (Caltag Laboratories). All the primary antibodies were from Abcam. Secondary antibodies were goat antibodies to mouse or rabbit coupled to Alexa 488 (Invitrogen). F-actin was stained by using a phalloidin reagent (Invitrogen). Cell nuclei were visualized with DAPI (Sigma). Slides were mounted with SlowFade Gold Antifade reagent (Invitrogen).
as §2
(§5) Real-time PCR was performed using a standard TaqMan PCR Kit protocol on an Applied Biosystems 7900HT Sequence Detection System (Applied Biosystems). The 10 pl PCR reaction included 0.67 pl RT product, 1 pl TaqMan Universal PCR Master Mix (Applied Biosystems), […]. The reactions were incubated in a 96-well plate at 95° C. for […], followed by 40 cycles of 95° C. for 15 s and 60° C. for 1 mM All reactions were run in triplicate. The threshold cycle (CT) is defined as the fractional cycle number at which the fluorescence passes the fixed threshold. The comparative CT method for relative quantization of gene expression (Applied Biosystems) was used to determine miRNA and genes expression levels. The y axis represents the 2^(−ΔCT), or the relative expression of the different miRs and genes. MiRs expression was calculated relative to U44 and U48 rRNA (for microRNAs) and to GAPDH (for genes). Experiments were carried out in triplicate for each data point, and data analysis was performed by using software (Bio-Rad).

[6] = system: miR-30b, miR-30c, miR-221 and miR-222; assay: qRT-PCR of miRNA expression after drug treatment; type: cell-based, human; conditions: for miR-30b, miR-30c, miR-221 and miR-222 expression after gefitinib: 5 μM or 10 μM gefitinib; for miR-221, miR-222, miR-30b and miR-30c expression after gefitinib: 10 μM gefitinib, 24 h
Method: as §5

miR-103 and miR-203 = assay: qRT-PCR of miRNA expression after drug treatment; type: cell-based, human; conditions: Calu-1; 1 and 3 μM, 24, 48 and 72 h; P<0.05
Method: as §5

BIM and APAF-1 = assay: Western blot of BIM and APAF-1 protein; type: cell-based, human; conditions: 24 h; for BIM and APAF-1 protein after gefitinib: 5 μM or 10 μM gefitinib; for APAF-1 and BIM expression after gefitinib: 5 or 10 μM gefitinib
Method: as §2, §3

phosphorylated ERKs = assay: Western blot of ERK phosphorylation after gefitinib; type: cell-based; conditions: 24 h; for Concentration of phosphorylated ERKs compared to untreated cells: 5 μM or 10 μM gefitinib; for ERKs phosphorylation after gefitinib: 5 or 10 μM gefitinib
Method: as §2, §3

PC9 cells = assay: Cell viability (MTS) and caspase 3/7 assays with gefitinib; type: cell-based; conditions: PC9 EGFR mutant; even at low doses (0.1 μM), 24 h
Method: as §4

[7] = system: miR-21, miR-29a, miR-29c and miR-100; assay: qRT-PCR of miRNA expression after drug treatment; type: cell-based, human; conditions: 5 and 10 μM gefitinib
Method: as §5

Dicer = assay: Western blot of Dicer; type: cell-based; conditions: Calu-1
Method: as §2, §3

[8] = SU11274 treated Calu-1 cells exposed to different concentrations of gefitinib, 24 h

Compound: miR-203: synthetic miR-203 or lentiviral construct containing full-length miR-203; targets SRC (CTAGTGGTCCTAAACATTTCAC; listed as DNA, chemistry not given here)
- Tumor growth (A549 cells [1]): marked inhibition
- Sensitivity to gefitinib-induced apoptosis in vivo (A549 cells [1]): increased sensitivity
- Cell cycle distribution (G1 fraction; S and G2-M phases) (A549 cells [2]): increased G1 cell fraction
- Phosphorylation of AKT, GSK3β and the ERKs (AKT/ERKs pathways): reduced phosphorylation
- Cell cycle distribution (G1 fraction; S and G2-M phases) (Calu-1 cells [3]): increased G1 cell fraction
- Migration reduced compared to controls (NSCLCs): about 60%
- Concentrations of PKC-ε and SRC protein after enforced miRNA expression (PKC-ε and SRC): clearly reduced
- Gefitinib sensitivity of transfected cells (caspase-3/7 and viability assays) (Calu-1 cells [4]): increased the sensitivity
- E-cadherin expression [5]: increased
- Expression of mesenchymal markers [5]: downregulation

Compound: Cc1[nH]c(/C=C2\C(=O)Nc3ccc(S(=O)(=O)N(C)c4cccc(Cl)c4)cc32)c(C)c1C(=O)N1CCN(C)CC1 [SU11274]
- miR-30b/c and miR-221/miR-222 expression after SU11274 ([6]; Calu-1, 1 and 3 μM, 24, 48 and 72 h): down-regulation
- miR-103 and miR-203 expression after SU11274 (miR-103 and miR-203): increased
- Caspase-3/7 activity on exposure to gefitinib (Calu-1 cells [4]; [8]): increased
- Cell viability on exposure to gefitinib (Calu-1 cells [4]; [8]): decreased

Compound: COc1cc2ncnc(Nc3ccc(F)c(Cl)c3)c2cc1OCCCN1CCOCC1 [gefitinib]
- BIM and APAF-1 protein after gefitinib (BIM and APAF-1; HCC827): increased amounts
- APAF-1 and BIM expression after gefitinib (BIM and APAF-1; HCC827GR): did not change
- BIM and APAF-1 protein after gefitinib (BIM and APAF-1; PC9): increased amounts
- APAF-1 and BIM expression after gefitinib (BIM and APAF-1; PC9GR): did not change
- Concentration of phosphorylated ERKs compared to untreated cells (phosphorylated ERKs; HCC827): markedly lower
- ERKs phosphorylation after gefitinib (phosphorylated ERKs; HCC827GR): did not change
- Concentration of phosphorylated ERKs compared to untreated cells (phosphorylated ERKs; PC9): markedly lower
- ERKs phosphorylation after gefitinib (phosphorylated ERKs; PC9GR): did not change
- Cell growth / viability relative to untreated controls (PC9 cells): significantly inhibited
- miR-30b, miR-30c, miR-221 and miR-222 expression after gefitinib ([6]; A549 gefitinib-resistant): does not decrease
- miR-30b, miR-30c, miR-221 and miR-222 expression after gefitinib ([6]; Calu-1 gefitinib-resistant): does not decrease
- miR-30b, miR-30c, miR-221 and miR-222 expression after gefitinib ([6]; HCC827): downregulation
- miR-221, miR-222, miR-30b and miR-30c expression after gefitinib ([6]; HCC827 GR): did not decrease
- miR-30b, miR-30c, miR-221 and miR-222 expression after gefitinib ([6]; PC9): downregulation
- miR-221, miR-222, miR-30b and miR-30c expression after gefitinib ([6]; PC9 GR): did not decrease
- miR-21, miR-29a, miR-29c and miR-100 expression after gefitinib ([7]; HCC827): downregulated
- Downregulation of miR-21, miR-29a, miR-29c and miR-100 after gefitinib ([7]; HCC827 GR): not observed
- miR-21, miR-29a, miR-29c and miR-100 expression after gefitinib ([7]; PC9): downregulated
- Downregulation of miR-21, miR-29a, miR-29c and miR-100 after gefitinib ([7]; PC9 GR): not observed

Compound: miR-103: synthetic miR-103 or lentiviral construct containing full-length miR-103; targets PKC-ε and Dicer (AGCAGCATTGTACAGGGCTATGA; listed as DNA, chemistry not given here)
- Tumor growth (A549 cells [1]): marked inhibition
- Sensitivity to gefitinib-induced apoptosis in vivo (A549 cells [1]): increased sensitivity
- Dicer level (Dicer): marked down-regulation
- Cell cycle distribution (G1 fraction; S and G2-M phases) (A549 cells [2]): increased G1 cell fraction
- Phosphorylation of AKT, GSK3β and the ERKs (AKT/ERKs pathways): reduced phosphorylation
- Cell cycle distribution (G1 fraction; S and G2-M phases) (Calu-1 cells [3]): increased G1 cell fraction
- Migration reduced compared to controls (NSCLCs): about 60%
- Concentrations of PKC-ε and SRC protein after enforced miRNA expression (PKC-ε and SRC): clearly reduced
- Gefitinib sensitivity of transfected cells (caspase-3/7 and viability assays) (Calu-1 cells [4]): increased the sensitivity
- E-cadherin expression [5]: increased
- Expression of mesenchymal markers [5]: downregulation
